Experimental data: patent US12077537B2 (Gilead Sciences, Inc., priority 2020, dated 2024)

System: HIV-IIIb
Experiment: Antiviral assay in MT4 cells
Format: cell-based
Settings: Human immunodeficiency virus 1, MT4, 120 h; MT-4 cells mixed with HIV-IIIb at m.o.i. 0.003; 5 days at 37° C.; CellTiter-Glo luminescence; 50% decrease in signal, a measure of HIV-1 replication
In short: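 MT-4 cells were infected with HIV-IIIb at m.o.i. 0.003 for 1 hour, then added to 3-fold serially diluted compound (10 concentrations, quadruplicate) in medium with 10% FBS. After 5 days at 37° C, cell viability was read by CellTiter-Glo chemiluminescence.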

SMILES	EC50
NC(=O)c1cc(-c2cc3sc(N4CCN(c5ccc(C(F)(F)F)cc5)CC4)nc3nc2[C@H](Cc2cc(F)cc(F)c2)NC(=O)Cn2nc(C(F)(F)F)c3c2C(F)(F)[C@@H]2C[C@H]32)ccc1F [Compound 141, 5-(5-((S)-1-(2-((3bS,4aR)-5,5-difluoro-3-(trifluoromethyl)-3b,4,4a,5-tetrahydro-1H-cyclopropa[3,4]cyclopenta[1,2-c]pyrazol-1-yl)acetamido)-2-(3,5-difluorophenyl)ethyl)-2-(4-(4-(trifluoromethyl)phenyl)piperazin-1-yl)thiazolo[4,5-b]pyridin-6-yl)-2-fluorobenzamide]	1810 nM
CC(C)(C)OC(=O)N1CCN(c2ccc(-c3nc4nc([C@H](Cc5cc(F)cc(F)c5)NC(=O)Cn5nc(C(F)(F)F)c6c5C(F)(F)[C@@H]5C[C@H]65)c(-c5ccc6c(c5)C(=O)NC6)cc4s3)cc2)CC1 [Compound 145, tert-butyl 4-(4-(5-((S)-1-(2-((3bS,4aR)-5,5-difluoro-3-(trifluoromethyl)-3b,4,4a,5-tetrahydro-1H-cyclopropa[3,4]cyclopenta[1,2-c]pyrazol-1-yl)acetamido)-2-(3,5-difluorophenyl)ethyl)-6-(3-oxoisoindolin-5-yl)thiazolo[4,5-b]pyridin-2-yl)phenyl)piperazine-1-carboxylate]	370 nM
NC(=O)c1cc(-c2cc3sc(-c4cn[nH]c4)nc3nc2[C@H](Cc2cc(F)cc(F)c2)NC(=O)Cn2nc(C(F)(F)F)c3c2C(F)(F)[C@@H]2C[C@H]32)ccc1F [Compound 149, 5-(5-((S)-1-(2-((3bS,4aR)-5,5-difluoro-3-(trifluoromethyl)-3b,4,4a,5-tetrahydro-1H-cyclopropa[3,4]cyclopenta[1,2-c]pyrazol-1-yl)acetamido)-2-(3,5-difluorophenyl)ethyl)-2-(1H-pyrazol-4-yl)thiazolo[4,5-b]pyridin-6-yl)-2-fluorobenzamide]	106 nM
O=C(Cn1nc(C(F)(F)F)c2c1CCCC2)N[C@@H](Cc1ccccc1)c1nc2ccccc2[nH]1 [Example 1, (S)—N-(1-(1H-benzo[d]imidazol-2-yl)-2-phenylethyl)-2-(3-(trifluoromethyl)-4,5,6,7-tetrahydro-1H-indazol-1-yl)acetamide]	29700 nM
N#Cc1cc(-c2cc3sc(N4CCOCC4)nc3nc2[C@H](Cc2cc(F)cc(F)c2)NC(=O)Cn2nc(C(F)F)c3c2C(F)(F)CCC3(F)F)ccc1F [Example 3K, (S)—N-(1-(6-(3-cyano-4-fluorophenyl)-2-morpholinothiazolo[4,5-b]pyridin-5-yl)-2-(3,5-difluorophenyl)ethyl)-2-(3-(difluoromethyl)-4,4,7,7-tetrafluoro-4,5,6,7-tetrahydro-1H-indazol-1-yl)acetamide]	1800 nM

Now those with a lower EC50, led by results:

EC50	SMILES
38.9 nM	CSc1nc2nc([C@H](Cc3cc(F)cc(F)c3)NC(=O)Cn3nc(C(F)(F)F)c4c3C(F)(F)[C@@H]3C[C@H]43)c(-c3ccc4c(c3)C(=O)NC4)cc2s1 [Compound 142, 2-((3bS,4aR)-5,5-difluoro-3-(trifluoromethyl)-3b,4,4a,5-tetrahydro-1H-cyclopropa[3,4]cyclopenta[1,2-c]pyrazol-1-yl)-N—((S)-2-(3,5-difluorophenyl)-1-(2-(methylthio)-6-(3-oxoisoindolin-5-yl)thiazolo[4,5-b]pyridin-5-yl)ethyl)acetamide]
15.5 nM	O=C(Cn1nc(C(F)(F)F)c2c1C(F)(F)[C@@H]1C[C@H]21)N[C@@H](Cc1cc(F)cc(F)c1)c1nc2nc(-c3ccc4c(c3)C(=O)NC4)sc2cc1-c1ccc2c(c1)C(=O)NC2 [Compound 143, N—((S)-1-(2,6-bis(3-oxoisoindolin-5-yl)thiazolo[4,5-b]pyridin-5-yl)-2-(3,5-difluorophenyl)ethyl)-2-((3bS,4aR)-5,5-difluoro-3-(trifluoromethyl)-3b,4,4a,5-tetrahydro-1H-cyclopropa[3,4]cyclopenta[1,2-c]pyrazol-1-yl)acetamide]
44.4 nM	O=C(Cn1nc(C(F)(F)F)c2c1C(F)(F)[C@@H]1C[C@H]21)N[C@@H](Cc1cc(F)cc(F)c1)c1nc2nc(-c3ccc(N4CCOCC4)cc3)sc2cc1-c1ccc2c(c1)C(=O)NC2 [Compound 144, 2-((3bS,4aR)-5,5-difluoro-3-(trifluoromethyl)-3b,4,4a,5-tetrahydro-1H-cyclopropa[3,4]cyclopenta[1,2-c]pyrazol-1-yl)-N—((S)-2-(3,5-difluorophenyl)-1-(2-(4-morpholinophenyl)-6-(3-oxoisoindolin-5-yl)thiazolo[4,5-b]pyridin-5-yl)ethyl)acetamide]
37 nM	O=C(Cn1nc(C(F)(F)F)c2c1C(F)(F)[C@@H]1C[C@H]21)N[C@@H](Cc1cc(F)cc(F)c1)c1nc2nc(-c3ccc(N4CCNCC4)cc3)sc2cc1-c1ccc2c(c1)C(=O)NC2 [Compound 147, 2-((3bS,4aR)-5,5-difluoro-3-(trifluoromethyl)-3b,4,4a,5-tetrahydro-1H-cyclopropa[3,4]cyclopenta[1,2-c]pyrazol-1-yl)-N—((S)-2-(3,5-difluorophenyl)-1-(6-(3-oxoisoindolin-5-yl)-2-(4-(piperazin-1-yl)phenyl)thiazolo[4,5-b]pyridin-5-yl)ethyl)acetamide]
90.4 nM	NC(=O)c1cc(-c2cc3sc(-c4cncnc4)nc3nc2[C@H](Cc2cc(F)cc(F)c2)NC(=O)Cn2nc(C(F)(F)F)c3c2C(F)(F)[C@@H]2C[C@H]32)ccc1F [Compound 148, 5-(5-((S)-1-(2-((3bS,4aR)-5,5-difluoro-3-(trifluoromethyl)-3b,4,4a,5-tetrahydro-1H-cyclopropa[3,4]cyclopenta[1,2-c]pyrazol-1-yl)acetamido)-2-(3,5-difluorophenyl)ethyl)-2-(pyrimidin-5-yl)thiazolo[4,5-b]pyridin-6-yl)-2-fluorobenzamide]
8 nM	CN(C)C1CN(c2nc3nc([C@H](Cc4cc(F)cc(F)c4)NC(=O)Cn4nc(C(F)(F)F)c5c4C(F)(F)[C@@H]4C[C@H]54)c(-c4cccc5c(NS(C)(=O)=O)nn(C)c45)cc3s2)C1 [Compound 150, 2-((3bS,4aR)-5,5-difluoro-3-(trifluoromethyl)-3b,4,4a,5-tetrahydro-1H-cyclopropa[3,4]cyclopenta[1,2-c]pyrazol-1-yl)-N—((S)-2-(3,5-difluorophenyl)-1-(2-(3-(dimethylamino)azetidin-1-yl)-6-(1-methyl-3-(methylsulfonamido)-1H-indazol-7-yl)thiazolo[4,5-b]pyridin-5-yl)ethyl)acetamide]
14.1 nM	CN(C)c1ncc(-c2nc3nc([C@H](Cc4cc(F)cc(F)c4)NC(=O)Cn4nc(C(F)(F)F)c5c4C(F)(F)[C@@H]4C[C@H]54)c(-c4cccc5c(NS(C)(=O)=O)nn(C)c45)cc3s2)cn1 [Compound 151, 2-((3bS,4aR)-5,5-difluoro-3-(trifluoromethyl)-3b,4,4a,5-tetrahydro-1H-cyclopropa[3,4]cyclopenta[1,2-c]pyrazol-1-yl)-N—((S)-2-(3,5-difluorophenyl)-1-(2-(2-(dimethylamino)pyrimidin-5-yl)-6-(1-methyl-3-(methylsulfonamido)-1H-indazol-7-yl)thiazolo[4,5-b]pyridin-5-yl)ethyl)acetamide]
